Data from patent US11078245B2, “Colon and pancreas cancer peptidomimetics” (PRECISION BIOLOGICS, INC., priority 2010, dated 2021).

B1: Construct 1-338: C-terminal truncation construct of MUC5AC, SEQ ID NO: 50 (protein)
chain: ATMSVGRRKLALLWALALALACTTTHSQPVTRDCHLRCTWTKWFDVDFPSPGPHGGDKETYNNIIRSGEKICRRPEEITRLQCRAESHPEVSIEHLGQVVQCSREEGLVCRNQDQQGPFKMCLNYEVRVLCCETPKGCPVTSTPVTAPSTPSGRATSPTQSTSSWQKSRTTTLVTTSTTSTPQTSTTSAPTTSTTSAPTTSTTSAPTTSTTSTPQTSISSAPTSSTTSAPTSSTISARTTSIISAPTTSTTSSPTTSTTSATTTSTTSAPTSSTTSTPQTSKTSAATSSTTSSSGTTPSPVTTTSTASVSKTSTSHVSVSKTTHSQPVTRCTHHHHHH
modifications: MUC5AC truncation construct (338)
B2: Construct 1-289: C-terminal truncation construct of MUC5AC, SEQ ID NO: 49 (protein)
chain: ATMSVGRRKLALLWALALALACTTTHSQPVTRDCHLRCTWTKWFDVDFPSPGPHGGDKETYNNIIRSGEKICRRPEEITRLQCRAESHPEVSIEHLGQVVQCSREEGLVCRNQDQQGPFKMCLNYEVRVLCCETPKGCPVTSTPVTAPSTPSGRATSPTQSTSSWQKSRTTTLVTTSTTSTPQTSTTSAPTTSTTSAPTTSTTSAPTTSTTSTPQTSISSAPTSSTTSAPTSSTISARTTSIISAPTTSTTSSPTTSTTSATTTSTTSAPTSSTTSTPQTSKTSAATSS
modifications: MUC5AC truncation construct (289)
B3: Construct 1-187: C-terminal truncation construct of MUC5AC, SEQ ID NO: 48 (protein)
chain: ATMSVGRRKLALLWALALALACTTTHSQPVTRDCHLRCTWTKWFDVDFPSPGPHGGDKETYNNIIRSGEKICRRPEEITRLQCRAESHPEVSIEHLGQVVQCSREEGLVCRNQDQQGPFKMCLNYEVRVLCCETPKGCPVTSTPVTAPSTPSGRATSPTQSTSSWQKSRTTTLVTTSTTSTPQTSTT
modifications: MUC5AC truncation construct (187)
B4: Construct 1-85: C-terminal truncation construct of MUC5AC, SEQ ID NO: 45 (protein)
chain: ATMSVGRRKLALLWALALALACTTTHSQPVTRDCHLRCTWTKWFDVDFPSPGPHGGDKETYNNIIRSGEKICRRPEEITRLQCRA
modifications: MUC5AC truncation construct (85)
B5: 1-85 (protein)
chain: B4 chain
modifications: MUC5AC truncation construct (85)
B6: 1-338 (protein)
chain: B1 chain
modifications: MUC5AC truncation construct (338)
B7: 1-289 (protein)
chain: B2 chain
modifications: MUC5AC truncation construct (289)
B8: 1-187 (protein)
chain: B3 chain
modifications: MUC5AC truncation construct (187)
B9: 1-151 (protein)
chain: ATMSVGRRKLALLWALALALACTTTHSQPVTRDCHLRCTWTKWFDVDFPSPGPHGGDKETYNNIIRSGEKICRRPEEITRLQCRAESHPEVSIEHLGQVVQCSREEGLVCRNQDQQGPFKMCLNYEVRVLCCETPKGCPVTSTPVTAPSTP
modifications: MUC5AC truncation construct (151)
B10: 1-136 (protein)
chain: ATMSVGRRKLALLWALALALACTTTHSQPVTRDCHLRCTWTKWFDVDFPSPGPHGGDKETYNNIIRSGEKICRRPEEITRLQCRAESHPEVSIEHLGQVVQCSREEGLVCRNQDQQGPFKMCLNYEVRVLCCETPK
modifications: MUC5AC truncation construct (136)

Experiments:
[1] = test system: CFPAC1 culture supernatant; assay: Peptide competition ELISA on CFPAC1 culture supernatant-coated plates; type: binding, human
Source text: FIG. 15A is a bar graph showing the percent blocking of NEO-101 by peptides (identified by biopanning an M13 phage library) on CFPAC1 culture supernatant-coated plates. FIG. 15B is a bar graph of OD values showing blocking of NEO-101 by peptides (identified by biopanning an M13 phage library) on CFPAC1 culture supernatant-coated plates.
Next, the inhibition of NEO-101 beads binding to CFAC1 Cells (rosetted cells) by peptides 4-1-4C12 and 4-1-4C12-R2 was investigated, as shown in FIG. 14A. FIG. 14B was the results from positive control with 4B6 in competitive beads assay. […] Therefore, the peptide 4-1-4-C12 is a peptidomimetic of the NPC-1 epitope and may be used to elicit a NPC-1 specific antibodies.

CFPAC1 cells = assay: NEO-101-coupled Dynal beads rosette assay; type: cell-based, human; details: for Positive rosette cells (%): Dynal beads coupled with NEO-101, premixed with M13 clone
Procedure: The M13 clones identified by the biopanning were also immunoassayed using magnetic beads. Aliquots of 5 μl M13 phage (10^11/10 μl) were mixed with 10 μl NEO-101-coupled Dynal® beads at RT for 20 min on a rotator. CFPAC1 cells (30 μl of 10^6 cells/ml) were added and incubated at 4° C. for 30 min. Rosetted cells were counted (>8 beads/cell).

NEO-101 = assay: Biotinylated peptide binding ELISA; details: biotinylated peptide on NEO-101 coated plate
Procedure: To solve the poor binding of peptides to 96 well plate, peptides were biotinylated using EZ-link micro NHS Biotinylation kit (Pierce Cat #21955), and labeling efficiency checked by dot blot (50%). The biotinylated peptide binding was analyzed in ELISA by adding 100 μl/well of NEO-101 (1 μg/ml) in CBS buffer to 96 well plate and incubating at 4° C. overnight, followed by three washes with TBST (0.05% Tween). The solution was blocked with 200μ/of 1% milk in TBS at RT for 20 min. Aliquots of 100 μl peptide-biotin ([…]) in 0.1% milk-TBS were added, and incubated at RT of 2 hr, followed by three washes with TBST. Streptavidin-HRP (100 μl of 1:2000 diluted in 1:10 diluted blocking buffer) was added, and the wells incubated at RT for 1 hr, followed by three washed. TMB was then added, and the wells were read at 450 nm. Positive controls for NPC-1C binding used 4B6-biotin. The results are shown in FIG. 11, which indicates biotinylated peptides bind to NPC-1C coated plate.

Colon Ag = assay: ELISA of NEO-101 binding inhibition by peptides against Colon Ag; design: species or system human
Procedure: An ELISA analysis of the NEO-101 binding inhibition by peptide 4-1-3-C9 and 4-1-4-C12 against Colon Ag was conducted. Aliquots of 100 μl/well Colon Ag (3 μg/ml in CBS buffer) in 96 well plate were incubated at 4° C. overnight, and the wells washed three times with TBST (0.05% Tween). The wells were blocked with 200 μl of 1% milk at RT for 1 hour. A pre-mix of NEO-101-biotin and test peptide was added at 100 μl/well and incubated at RT of 1 hour, followed by three washes with TBST. Streptavidin-HRP (100 μl of 1:2000 dilution) was added and the reaction incubated at RT for 1 hour, and the wells washed three time. TMB was added, and the wells were read at 450 nm. The control was NEO-101-biotin.

NEO-101 antibody = assay: Immunofluorescence of 293T cells transfected with MUC5AC truncation constructs; type: cell-based; details: 2 μg/ml NEO-101 antibody
Procedure: Six truncation constructs were made representing C-terminal truncations of the full-length MUC5AC protein (SEQ ID NO: 36).
293T cells were cultured on FBS coated cover slips for 24 hours. Cells were transiently transfected with 2 μg of MUC5AC constructs of Table 8 with LIPOFECTAMINE®. Cells were grown for about 72 hours, fixed with about 4% PFA in PBS, washed with PBS, permeabilized with about 0.2% […] in PBS and washed with PBS. Cells were then blocked with about 1% BSA in PBS, and about 2 μg/ml NEO-101 antibody was added to sample wells and about 2 μg/ml of an Isotype control was added for 1 hour at room temp. Cells were washed with PBS and second anti human-FITC antibody (1:500) was added to all wells and to the second antibody control wells. Cells were washed and mounted on slides with DAPI hard mount. Cover slides were allowed to sit over night at about 4° C. Slides were visualized with a Nikon Eclipse Ti microscope with an Andor camera. At least 3 random fields were counted per transfection.

Molecule	Positive rosette cells (%) (CFPAC1 cells)	Binds NPC-1? (NEO-101 antibody)	other results
SLPDDWFRYINYSLPDDWFRYINY (NPC-1 epitope peptidomimetic) [Peptide 4-1-4C12-R2]	–	–	competition against bound CFPAC1 antigen with NEO-101 binding [1]: significant competition
YSHSFPEDYFRYTNQKGGGS (NPC-1 epitope peptidomimetic) [Peptide 4-1-3-C9]	0	–	blocking of NEO-101-coupled beads binding to CFPAC1 cells (CFPAC1 cells): blocked; NEO-101 binding (NEO-101): Yes; Blocking of NEO-101 antibody binding to colon Ag (Colon Ag): Yes; competition against bound CFPAC1 antigen with NEO-101 binding [1]: significant competition
YSHSSLPDDWFRYINYGGGS (NPC-1 epitope peptidomimetic) [Peptide 4-1-4-C12]	0	–	blocking of NEO-101-coupled beads binding to CFPAC1 cells (CFPAC1 cells): blocked; NEO-101 binding (NEO-101): Yes; Blocking of NEO-101 antibody binding to colon Ag (Colon Ag): Yes; competition against bound CFPAC1 antigen with NEO-101 binding [1]: higher inhibition in low concentration comparing with 4-1-3C9
YSHSVHAIEDNWSPRGGGGS (NPC-1 epitope peptidomimetic) [Peptide 4-1-3-C11, reference compound]	38	–	NEO-101 binding (NEO-101): No; Blocking of NEO-101 antibody binding to colon Ag (Colon Ag): No
YSHSWHTLPEKSLDENGGGS (NPC-1 epitope peptidomimetic) [Peptide 4-1-2-C5]	0	–	blocking of NEO-101-coupled beads binding to CFPAC1 cells (CFPAC1 cells): blocked
YSHSWHTLPESGEVTSGGGS (NPC-1 epitope peptidomimetic) [Peptide 4-1-3-C8]	0	–	blocking of NEO-101-coupled beads binding to CFPAC1 cells (CFPAC1 cells): blocked; NEO-101 binding (NEO-101): Yes; Blocking of NEO-101 antibody binding to colon Ag (Colon Ag): No
B1	–	binding activity	–
B2	–	binding activity	–
B3	–	binding activity	–
B4	–	no binding	–
B5	–	No	–
B6	–	Yes	–
B7	–	Yes	–
B8	–	Yes	–
B9	–	Yes	–
B10	–	No	–
